Legend:
[1] = target: T1, IKZF3 (Homo sapiens, UniProt Q96SW2+Q9UKT9); experiment: Western-blot assay of substrate protein degradation in hPBMCs, IKZF3; type: cell-based; settings: 24 hours of compound treatment
T1 construct: endogenous in cells; host or cells: hPBMCs (Milecell Biotechnologies)

[2] = target: T2, IKZF1 (Homo sapiens, UniProt Q13422+Q96SW2); experiment: Western-blot assay of substrate protein degradation in hPBMCs, IKZF1; type: cell-based; settings: 24 hours of compound treatment
T2 construct: endogenous in cells; host or cells: hPBMCs (Milecell Biotechnologies)

[3] = target: T3, IKZF2 (Homo sapiens, UniProt Q96SW2+Q9UKS7); experiment: Western-blot assay of substrate protein degradation in hPBMCs, IKZF2; type: cell-based; settings: 24 hours of compound treatment
T3 construct: endogenous in cells; host or cells: hPBMCs (Milecell Biotechnologies)

[4] = target: T4, CK1α (Homo sapiens, UniProt P48729+Q96SW2); experiment: Western-blot assay of substrate protein degradation in hPBMCs, CK1α; type: cell-based; settings: 24 hours of compound treatment
T4 construct: endogenous in cells; host or cells: hPBMCs (Milecell Biotechnologies)

[5] = target: T5, human Cereblon WT GST-tagged protein (Homo sapiens, UniProt Q96SW2); experiment: CRBN-binding affinity by HTRF (CEREBLON BINDING kit); settings: HTRF inhibitory activity, CEREBLON BINDING kit; read-out: HTRF IC50
T5 construct: purchased CISBIO 64BDCRBNPEH

[6] = target: T6, GSPT1 (Homo sapiens, UniProt P15170+Q96SW2); experiment: Western-blot assay of substrate protein degradation in hPBMCs, GSPT1; type: cell-based; settings: 24 hours of compound treatment
T6 construct: endogenous in cells; host or cells: hPBMCs (Milecell Biotechnologies)

[7] = target: T7, WEE1 (Homo sapiens, UniProt P30291+Q96SW2); experiment: Western-blot assay of substrate protein degradation in hPBMCs, WEE1; type: cell-based; settings: 24 hours of compound treatment
T7 construct: endogenous in cells; host or cells: hPBMCs (Milecell Biotechnologies)

[8] = 50 nM and 500 nM tested (concentration behind the class not stated)
[9] = compounds tested at 50 nM and 500 nM (concentration of the table not stated)

T2 sequence (Q13422 whole entry): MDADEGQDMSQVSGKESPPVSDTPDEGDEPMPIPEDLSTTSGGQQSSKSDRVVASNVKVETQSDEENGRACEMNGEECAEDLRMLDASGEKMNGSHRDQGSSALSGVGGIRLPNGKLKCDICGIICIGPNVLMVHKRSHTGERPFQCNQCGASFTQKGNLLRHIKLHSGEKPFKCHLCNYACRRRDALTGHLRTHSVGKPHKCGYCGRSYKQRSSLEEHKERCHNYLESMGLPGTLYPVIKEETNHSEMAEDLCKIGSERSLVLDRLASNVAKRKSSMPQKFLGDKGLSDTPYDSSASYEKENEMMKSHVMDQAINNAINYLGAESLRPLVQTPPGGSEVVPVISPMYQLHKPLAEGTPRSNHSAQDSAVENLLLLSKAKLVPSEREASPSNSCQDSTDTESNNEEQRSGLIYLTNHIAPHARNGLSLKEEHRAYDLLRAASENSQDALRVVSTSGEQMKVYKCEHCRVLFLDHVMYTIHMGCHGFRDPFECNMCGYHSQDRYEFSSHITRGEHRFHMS
T2 sequence (Q96SW2 whole entry): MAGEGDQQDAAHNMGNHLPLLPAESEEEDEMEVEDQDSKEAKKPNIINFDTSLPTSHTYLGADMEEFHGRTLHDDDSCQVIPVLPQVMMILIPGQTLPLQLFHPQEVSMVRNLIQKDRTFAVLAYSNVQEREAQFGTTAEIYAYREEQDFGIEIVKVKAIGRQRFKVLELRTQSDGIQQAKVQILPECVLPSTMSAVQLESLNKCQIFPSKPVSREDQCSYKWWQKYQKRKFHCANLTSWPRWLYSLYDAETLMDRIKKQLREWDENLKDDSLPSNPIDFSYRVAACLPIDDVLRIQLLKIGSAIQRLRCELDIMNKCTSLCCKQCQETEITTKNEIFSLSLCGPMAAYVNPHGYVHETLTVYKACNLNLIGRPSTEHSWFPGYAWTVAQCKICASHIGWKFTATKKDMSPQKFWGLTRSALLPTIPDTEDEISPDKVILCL
T2 sequence (Q16531 whole entry partner): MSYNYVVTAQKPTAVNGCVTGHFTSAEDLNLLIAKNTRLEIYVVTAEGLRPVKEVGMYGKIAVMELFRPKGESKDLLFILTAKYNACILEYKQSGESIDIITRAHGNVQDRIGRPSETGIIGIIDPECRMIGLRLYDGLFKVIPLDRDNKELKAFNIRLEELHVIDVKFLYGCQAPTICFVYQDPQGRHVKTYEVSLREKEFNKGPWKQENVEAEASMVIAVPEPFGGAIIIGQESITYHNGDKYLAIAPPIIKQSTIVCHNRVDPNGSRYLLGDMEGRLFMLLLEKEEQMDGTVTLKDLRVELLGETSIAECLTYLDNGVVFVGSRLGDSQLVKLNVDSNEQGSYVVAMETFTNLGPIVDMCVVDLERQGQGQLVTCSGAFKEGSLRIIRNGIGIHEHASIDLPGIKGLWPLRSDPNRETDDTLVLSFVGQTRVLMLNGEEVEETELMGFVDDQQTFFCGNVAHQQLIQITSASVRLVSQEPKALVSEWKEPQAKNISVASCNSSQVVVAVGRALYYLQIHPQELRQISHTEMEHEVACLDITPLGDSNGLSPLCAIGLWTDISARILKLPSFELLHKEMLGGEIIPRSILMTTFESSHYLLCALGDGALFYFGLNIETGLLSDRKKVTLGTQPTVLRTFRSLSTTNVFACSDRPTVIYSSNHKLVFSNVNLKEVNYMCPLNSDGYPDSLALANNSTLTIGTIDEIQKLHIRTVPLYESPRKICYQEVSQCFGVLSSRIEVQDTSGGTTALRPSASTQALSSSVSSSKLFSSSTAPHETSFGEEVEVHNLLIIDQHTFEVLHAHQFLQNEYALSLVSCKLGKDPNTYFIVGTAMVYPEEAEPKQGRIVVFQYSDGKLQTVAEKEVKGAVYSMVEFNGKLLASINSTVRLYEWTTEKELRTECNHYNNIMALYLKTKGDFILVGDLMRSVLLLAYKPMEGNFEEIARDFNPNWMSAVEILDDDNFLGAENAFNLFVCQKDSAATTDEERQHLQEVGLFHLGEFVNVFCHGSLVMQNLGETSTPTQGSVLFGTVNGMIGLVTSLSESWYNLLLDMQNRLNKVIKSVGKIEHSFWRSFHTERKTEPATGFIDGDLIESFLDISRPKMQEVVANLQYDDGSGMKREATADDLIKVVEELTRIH
T3 sequence (Q9UKS7 whole entry): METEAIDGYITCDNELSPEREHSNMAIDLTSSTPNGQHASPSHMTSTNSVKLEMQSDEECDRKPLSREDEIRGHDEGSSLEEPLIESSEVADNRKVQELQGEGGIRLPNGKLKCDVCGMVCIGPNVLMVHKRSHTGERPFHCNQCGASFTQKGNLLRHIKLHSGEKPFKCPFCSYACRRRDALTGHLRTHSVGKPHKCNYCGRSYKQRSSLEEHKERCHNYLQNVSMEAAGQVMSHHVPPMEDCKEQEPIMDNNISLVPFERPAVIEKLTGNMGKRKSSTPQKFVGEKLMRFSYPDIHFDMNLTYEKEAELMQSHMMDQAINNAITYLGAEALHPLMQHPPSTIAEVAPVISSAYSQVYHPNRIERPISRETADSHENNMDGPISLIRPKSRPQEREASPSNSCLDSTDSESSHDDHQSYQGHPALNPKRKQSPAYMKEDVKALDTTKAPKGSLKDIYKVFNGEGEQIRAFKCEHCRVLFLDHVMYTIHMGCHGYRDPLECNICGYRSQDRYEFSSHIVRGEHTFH
T3 sequence (Q96SW2 whole entry): as the sequence (Q96SW2 whole entry) above
T3 sequence (Q16531 whole entry partner): as the sequence (Q16531 whole entry partner) above
T4 sequence (P48729 whole entry): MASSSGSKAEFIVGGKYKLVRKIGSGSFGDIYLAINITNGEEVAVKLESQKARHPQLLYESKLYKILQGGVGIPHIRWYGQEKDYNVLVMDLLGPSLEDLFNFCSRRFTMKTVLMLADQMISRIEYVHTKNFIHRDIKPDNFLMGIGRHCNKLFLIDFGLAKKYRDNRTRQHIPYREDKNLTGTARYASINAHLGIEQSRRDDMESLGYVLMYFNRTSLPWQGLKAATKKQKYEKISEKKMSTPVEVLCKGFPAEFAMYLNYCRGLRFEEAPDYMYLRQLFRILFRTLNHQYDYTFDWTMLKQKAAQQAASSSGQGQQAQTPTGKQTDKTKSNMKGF
T4 sequence (Q96SW2 whole entry): as the sequence (Q96SW2 whole entry) above
T4 sequence (Q16531 whole entry partner): as the sequence (Q16531 whole entry partner) above
T6 sequence (P15170 whole entry): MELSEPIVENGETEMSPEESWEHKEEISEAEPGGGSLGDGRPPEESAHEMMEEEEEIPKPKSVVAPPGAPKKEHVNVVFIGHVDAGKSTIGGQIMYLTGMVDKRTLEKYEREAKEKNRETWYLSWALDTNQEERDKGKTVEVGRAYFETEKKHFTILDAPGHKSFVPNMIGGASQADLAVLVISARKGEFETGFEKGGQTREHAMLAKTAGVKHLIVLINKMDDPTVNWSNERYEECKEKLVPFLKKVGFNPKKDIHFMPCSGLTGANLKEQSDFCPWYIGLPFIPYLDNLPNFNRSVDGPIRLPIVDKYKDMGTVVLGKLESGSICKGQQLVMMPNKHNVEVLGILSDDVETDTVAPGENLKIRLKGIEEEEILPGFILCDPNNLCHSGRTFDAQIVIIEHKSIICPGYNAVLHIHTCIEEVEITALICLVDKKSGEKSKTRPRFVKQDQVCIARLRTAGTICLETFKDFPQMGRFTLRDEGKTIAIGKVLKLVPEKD
T6 sequence (Q96SW2 whole entry): as the sequence (Q96SW2 whole entry) above
T6 sequence (Q16531 whole entry partner): as the sequence (Q16531 whole entry partner) above
T5 sequence (Q96SW2 whole entry): as the sequence (Q96SW2 whole entry) above
T7 sequence (P30291 whole entry): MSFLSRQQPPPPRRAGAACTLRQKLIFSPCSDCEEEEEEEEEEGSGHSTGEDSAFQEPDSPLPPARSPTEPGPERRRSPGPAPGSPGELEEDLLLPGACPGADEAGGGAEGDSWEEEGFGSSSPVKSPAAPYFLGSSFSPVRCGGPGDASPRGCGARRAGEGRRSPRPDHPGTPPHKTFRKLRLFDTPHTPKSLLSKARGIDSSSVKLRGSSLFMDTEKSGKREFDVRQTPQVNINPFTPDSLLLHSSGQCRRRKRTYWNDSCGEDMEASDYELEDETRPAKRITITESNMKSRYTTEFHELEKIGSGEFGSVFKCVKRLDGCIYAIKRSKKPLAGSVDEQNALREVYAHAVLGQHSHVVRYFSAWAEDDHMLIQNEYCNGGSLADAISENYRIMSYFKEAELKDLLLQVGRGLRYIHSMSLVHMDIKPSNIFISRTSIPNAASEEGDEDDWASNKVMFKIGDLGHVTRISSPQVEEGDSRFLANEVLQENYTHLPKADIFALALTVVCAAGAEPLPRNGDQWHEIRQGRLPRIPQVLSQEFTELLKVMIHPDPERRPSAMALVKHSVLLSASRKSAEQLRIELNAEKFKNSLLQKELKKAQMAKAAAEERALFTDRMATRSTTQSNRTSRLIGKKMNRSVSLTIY
T7 sequence (Q96SW2 whole entry): as the sequence (Q96SW2 whole entry) above
T7 sequence (Q16531 whole entry partner): as the sequence (Q16531 whole entry partner) above

Row | SMILES | IKZF3 substrate protein remaining % [1, 8] | IKZF 1 substrate protein remaining % [2, 8] | IKZF2 substrate protein remaining % [3, 8] | CK1a substrate protein remaining % [4, 8] | IC50 [5] [nM] | GSPT1 substrate protein remaining % [6, 8] | Weel substrate protein remaining % [7, 8] | IKZF3 substrate protein remaining % [1, 9] | IKZF 1 substrate protein remaining % [2, 9] | IKZF2 substrate protein remaining % [3, 9] | CK1a substrate protein remaining % [4, 9] | GSPT1 substrate protein remaining % [6, 9] | Weel substrate protein remaining % [7, 9]
1 | Cc1ccc(C2=CCN(Cc3ccc4c(c3)C(=O)N(C3CCC(=O)NC3=O)C4=O)CC2)s1 (centres unmarked) [GT-06220, 2-(2,6-dioxopiperidin-3-yl)-5-((4-(5-methylthiophen-2-yl)-3,6-dihydropyridin-1(2H)-yl)methyl)isoindoline-1,3-dione] | A (0% ≤ substrate protein remaining % ≤ 80%) | A (0% ≤ substrate protein remaining % ≤ 80%) | A (0% ≤ substrate protein remaining % ≤ 80%) | A (0% ≤ substrate protein remaining % ≤ 80%) | 1500 to 1900 | A (0% ≤ substrate protein remaining % ≤ 80%) | A (0% ≤ substrate protein remaining % ≤ 80%) | – | – | – | – | – | –
2 | O=C1CCC(N2C(=O)c3ccc(CN4CC=C(c5ccco5)CC4)cc3C2=O)C(=O)N1 (centres unmarked) [GT-06222, 2-(2,6-dioxopiperidin-3-yl)-5-((4-(furan-2-yl)-3,6-dihydropyridin-1(2H)-yl)methyl)isoindoline-1,3-dione] | A (0% ≤ substrate protein remaining % ≤ 80%) | A (0% ≤ substrate protein remaining % ≤ 80%) | A (0% ≤ substrate protein remaining % ≤ 80%) | A (0% ≤ substrate protein remaining % ≤ 80%) | 1000 to 1500 | A (0% ≤ substrate protein remaining % ≤ 80%) | A (0% ≤ substrate protein remaining % ≤ 80%) | – | – | – | – | – | –
3 | O=C1CCC(N2C(=O)c3ccc(CN4CC=C(c5ccoc5)CC4)cc3C2=O)C(=O)N1 (centres unmarked) [GT-06223, 2-(2,6-dioxopiperidin-3-yl)-5-((4-(furan-3-yl)-3,6-dihydropyridin-1(2H)-yl)methyl)isoindoline-1,3-dione] | A (0% ≤ substrate protein remaining % ≤ 80%) | A (0% ≤ substrate protein remaining % ≤ 80%) | B (80%< substrate protein remaining %≤ 100%) | A (0% ≤ substrate protein remaining % ≤ 80%) | 1000 to 1500 | A (0% ≤ substrate protein remaining % ≤ 80%) | A (0% ≤ substrate protein remaining % ≤ 80%) | – | – | – | – | – | –
4 | O=C1CCC(N2C(=O)c3ccc(CN4CCC(=C5CCOc6cc(F)ccc65)CC4)cc3C2=O)C(=O)N1 (centres unmarked) [GT-06238, 2-(2,6-dioxopiperidin-3-yl)-5-((4-(7-fluorochroman-4-ylidene)piperidin-1-yl)methyl)isoindoline-1,3-dione] | – | – | – | – | 1000 to 1500 | – | – | A (0% ≤ substrate protein remaining % ≤ 80%) | B (80%< substrate protein remaining %≤ 100%) | A (0% ≤ substrate protein remaining % ≤ 80%) | B (80%< substrate protein remaining %≤ 100%) | A (0% ≤ substrate protein remaining % ≤ 80%) | B (80%< substrate protein remaining %≤ 100%)
5 | Cc1csc2ncnc(N3CCN(Cc4ccc5c(c4)C(=O)N(C4CCC(=O)NC4=O)C5=O)CC3)c12 (centres unmarked) [GT-06304, 2-(2,6-dioxopiperidin-3-yl)-5-((4-(5-methylthieno[2,3-d]pyrimidin-4-yl)piperazin-1-yl)methyl)isoindoline-1,3-dione] | B (80%< substrate protein remaining %≤ 100%) | A (0% ≤ substrate protein remaining % ≤ 80%) | A (0% ≤ substrate protein remaining % ≤ 80%) | B (80%< substrate protein remaining %≤ 100%) | 500 to 1000 | B (80%< substrate protein remaining %≤ 100%) | B (80%< substrate protein remaining %≤ 100%) | – | – | – | – | – | –

Source: patent EP4745137A1 (Gluetacs Therapeutics (Shanghai) Co., Ltd., priority 2023, dated 2025)
